# Reference: patent publication US7358249B2, “Heterocyclic compounds having inhibitory activity against HIV integrase” (Shionogi & Co., Ltd., priority 2002, dated 2008)
# “And” between values parts separate entries of the source, which are not always exact repeats. Identical values can stand only once.
# Tests used:
# HIV integrase = HIV integrase (Human immunodeficiency virus type 1 group M subtype B, UniProt P04585); experiment: integrase inhibition assay (microtiter plate, substrate DNA / target DNA); type: biochemical; details: integrase 30 pmol, incubated at 30° C. for 1 hour, OD at 405 nm; concentration at percent inhibition 50%; read-out: MIA, IC50 (ug/ml) (converted)
# Procedure: The inhibitory activities against integrase of the presnt compounds were determined by the assay described below.
# (1) Preparation of DNA Solutions
# Substrate DNA and target DNA synthesized by Amersham Pharmacia Biotech, which sequences were indicated below, were dissolved in KTE buffer (composition: 100 mM KCl, 1 mM EDTA, 10 mM Tris-HCl (pH 7.6)) at a concentration of 2 pmol/μl and 5 pmol/μl, respectively. The DNA solutions were heated and then slowly cooled so that they were annealed with each complement.
# (Sequence of Substrate DNA)
# (2) Calculations of the percent inhibitions (IC50 values of test compounds)
# Streptavidin, obtained from Vector Laboratories, was dissolved in 0.1 M carbonate buffer (composition: 90 mM Na2CO3, 10 mM NaHCO3) at a concentration of 40 μg/ml. After coating each well of microtiter plates (obtained from NUNC) with 50 μl of the above solution at 4° C. over night, each well was washed twice with PBS (composition: […], 0.27 mM KCl, 0.43 mM Na2HPO4, 0.14 mM KH2PO4) and blocked with 300 μl of 1% skim milk in PBS for 30 min. Additionally, each well was washed twice with PBS and added with 50 μl of the substrate DNA solution (2 pmol/μl). The microtiter plates were kept at room temperature for 30 min. Then, each well was washed twice with PBS and once with H2O.
# Subsequently, to the each well prepared above were added 45 μl of the reaction buffer prepared from 12 μl of the buffer (composition: 150 mM MOPS (pH 7.2), 75 mM MnCl2, 50 mM 2-mercaptoethanol, 25% glycerol, 500 μg/ml bovine serum albumin-fraction V), 1 μl of target DNA (5 pmol/μ), and 32 μl of the distilled water. Additionally, 6 μl of either a test compound in DMSO or DMSO for positive control (PC) was mixed with the above reaction buffer, then 9 μl of an integrase solution (30 pmol) was added thereto and the mixture was mixed well. To the well of negative control (NC) was added 9 μl of the integrase dilution buffer (composition: 20 mM MOPS (pH7.2), 400 mM potassium glutamate, 1 mM EDTA, 0.1% NP-40, 20% glycerol, 1 mM DTT, 4 M urea).
# The microtiter plates were incubated at 30° C. for 1 hour. The reaction solution was removed and each well was washed twice with PBS. Subsequently, each well of the microtiter plates was filled with 100 μl of anti-digoxigenin antibody labeled with alkaline phosphatase (Sheep Fab fragment: obtained from Boehringer) and incubated at 30° C. for 1 hour. Then, each well was washed twice with 0.05% Tween20 in PBS and once with PBS. Next, 150 μl of the Alkaline phosphatase reaction buffer (composition: 10 mM p-Nitrophenylphosphate (obtained from Vector Laboratories), 5 mM MgCl2, 100 mM NaCl, 100 mM Tris-HCl (pH 9.5)) was added to each well. The microtiter plates were incubated at 30° C. for 2 hours and the reaction was terminated by the addition of 50 μl of 1 N NaOH solution. The optical density (OD) at 405 nm of each well was measured and the percent inhibition was determined by the following expression. The percent inhibition (%)=100[1−{(C abs.−NC abs.)/(PC abs.−NC abs.)}]
# C abs.; the OD of the well of the test compound
# NC abs.: the OD of the negative control (NC)
# PC abs.: the OD of the positive control (PC)
# When the percent inhibition (%) is X % at a concentration of x μg/ml and the percent inhibition (%) is Y % at a concentration of y μg/ml, one of which is more than 50% and the other is less than 50%, IC50 can be determined by the following expression. IC50 (μg/ml)=x−{(X−50)(x−y)/(X−Y)}
# Compound No. in the Table 1 is the same as compound No. of the above Examples.
Compound,IC50 (HIV integrase),melting point
"COC(=O)c1cc(C(=O)N2CCN(C)CC2)c2cc(Cc3ccc(F)cc3)cnc2c1O [Compound I-48, 3-(4-Fluorobenzyl)-8-hydroxy-5-(4-methyl-piperadine-1-carbonyl)quinoline-7-carboxylic acid methyl ester]",0.8 µM,184 to 185 °C
"COC(=O)c1cc(N2CCOC2=O)c2cc(Cc3ccc(F)cc3)cnc2c1O [Compound I-183, 3-(4-Fluorobenzyl)-8-hydroxy-5-(2-oxo-oxazolidine-3-yl)-quinoline-7-carboxylic acid methyl ester]",0.353 µM,152 to 153 °C
COCCNC(=O)c1cc(C(=O)OC)c(O)c2ncc(Cc3ccc(F)cc3)cc12 [Compound I-6],0.412 µM,152 to 154 °C
"COC(=O)c1nc(NS(=O)(=O)N(C)C)c2cc(Cc3ccc(F)cc3)cnc2c1O [Compound A-26, Methyl 5-[(dimethylamino)sulfonyl]-amino-3-(4-fluorobenzyl)-8-hydroxy-1,6-naphthylidine-7-carboxylate]",0.345 µM,159 to 160 °C
"COCCC(=O)Nc1nc(C(=O)OC)c(O)c2ncc(Cc3ccc(F)cc3)cc12 [Compound A-34, 3-(4-Fluorobenzyl)-8-hydroxy-5-(3-methoxy-1-propionyl)amino[1,6]naphthylidine-7-carboxylic acid methyl ester]",0.701 µM,205 to 206 °C
"O=C(O)c1cc(C(=O)O)c2cc(Cc3ccc(F)cc3)cnc2c1O [Compound I-4, 3-(4-Fluorobenzyl)-8-hydroxyquinoline-5,7-dicarboxylic acid]",0.352 µM,279 to 282 °C
"COC(=O)c1cc(NC2CCCCC2)c2cc(Cc3ccc(F)cc3)cnc2c1O [Compound I-15, 5-Cyclohexylamino-3-(4-fluorobenzyl)-8-hydroxyquinoline-7-carboxylic acid methylester]",1.62 µM,75.5 to 77.5 °C
"COC(=O)c1nc(C(=O)N2CCN(C)CC2)c2cc(Cc3ccc(F)cc3)cnc2c1O [Compound A-54, 5-(4-Methylpiperadine-1-carbonyl)-3-(4-fluorobenzyl)-8-hydroxy[1,6]naphthylidine-7-carboxylic acid methyl ester]",1.3 µM,226 to 227 °C
"COC(=O)c1cc(C(=O)O)c2cc(Cc3ccc(F)cc3)cnc2c1O [Compound I-3, 3-(4-Fluorobenzyl)-8-hydroxy-quinoline-5,7-dicarboxylic acid 7-methylester]",0.394 µM,237 to 239 °C
"COC(=O)c1cc(-c2n[nH]c(C)n2)c2cc(Cc3ccc(F)cc3)cnc2c1O [Compound I-134, 3-(4-Fluorobenzyl)-8-hydroxy-5-(5-methyl-1H-[1,2,4]triazole-3-yl)quinoline-7-carboxylic acid methyl ester]",0.357 µM,200 to 202 °C and 195 to 196 °C
"COC(=O)c1cc(N(C)C)c2cc(Cc3ccc(F)cc3)cnc2c1O [Compound I-16, 5-Dimethylamino-3-(4-fluorobenzyl)-8-hydroxyquinoline-7-carboxylic acid methylester]",0.451 µM,62 to 63 °C
"COC(=O)c1cc(NS(C)(=O)=O)c2cc(Cc3ccc(F)cc3)cnc2c1O [Compound I-12, 3-(4-Fluorobenzyl)-8-hydroxy-5-methanesulfonylaminoquinoline-7-carboxylic acid methyl ester]",1.24 µM,189.5 to 190.5 °C
"CCOC(=O)Nc1cc(C(=O)OC)c(O)c2ncc(Cc3ccc(F)cc3)cc12 [Compound I-9, 5-Ethoxycarbonylamino-3-(4-fluorobenzyl)-8-hydroxyquinoline-7-carboxylic acid methyl ester]",0.703 µM,205 to 206 °C
"COC(=O)c1cc(N)c2cc(Cc3ccc(F)cc3)cnc2c1O [Compound I-8, 5-Amino-3-(4-fluorobenzyl)-8-hydroxyquinoline-7-carboxylic acid methyl ester]",0.398 µM,114 to 115 °C
"COCCC(=O)Nc1cc(C(=O)OC)c(O)c2ncc(Cc3ccc(F)cc3)cc12 [Compound I-182, 3-(4-Fluorobenzyl)-8-hydroxy-5-(3-methoxy-propionylamino)-quinoline-7-carboxylic acid methyl ester]",0.461 µM,190 to 192 °C
"COC(=O)c1ncc2cc(Cc3ccc(F)cc3)cnc2c1O [Compound A-2, Methyl 3-(4-fluorobenzyl)-8-hydroxy-1,6-naphthylidine-7-carboxylate]",0.416 µM,218 to 219 °C
"COC(=O)c1cc(C(=O)NCCO)c2cc(Cc3ccc(F)cc3)cnc2c1O [Compound I-5, 3-(4-Fluorobenzyl)-8-hydroxy-5-(2-hydroxyethylcarbamoyl)quinoline-7-carboxylic acid methylester]",0.502 µM,207 to 208 °C
